Results reported in ChEMBL document CHEMBL1150962, “Activity-guided isolation of steroidal alkaloid antiestrogen-binding site inhibitors from Pachysandra procumbens” (J Nat Prod, 1998).
Activity calls are given as the source filed them. The rule behind the calls is not given here.

How the values were obtained:
Ishikawa [1] = test: Antiestrogenic activity in human Ishikawa cells assessed as inhibition of estrogen-induced alkaline phosphatase activity after 4 days by ELISA; conditions: 96 h
Ishikawa [2] = test: Potentiation of tamoxifen-induced antiestrogenic activity in human Ishikawa cells assessed as decrease in tamoxifen IC50 at 2 ug/ml after 4 days by ELISA; format: functional, cell-based
[3] = target: Anti-estrogen binding site (Rattus norvegicus); test: Displacement of [3H]tamoxifen from antiestrogen binding site in Sprague-Dawley rat liver by liquid scintillation counting
Ishikawa [4] = test: Potentiation of tamoxifen-induced antiestrogenic activity in human Ishikawa cells assessed as decrease in tamoxifen IC50 at 1 ug/ml after 4 days by ELISA; format: functional, cell-based

IC50 (Ishikawa [1]) | IC50 [3] | SMILES | Activity (Ishikawa [2]) | Activity (Ishikawa [4])
 | 3.5 µM | CC(C)[C@@H]1CN(C2=CC[C@@]3(C)[C@@H](CC[C@@H]4[C@@H]3CC[C@]3(C)[C@@H]([C@H](C)N(C)C)[C@@H](O)C[C@@H]43)C2=O)C1=O | Active | 
 | 0.6 µM | CC(=O)O[C@H]1C(NC(=O)c2ccccc2)=CC[C@]2(C)[C@H]3CC[C@]4(C)[C@@H]([C@H](C)N(C)C)CC[C@H]4[C@@H]3CC[C@@H]12 |  | Active
 | 0.4 µM | CO[C@H]1CC[C@@]2(C)C(=CC[C@H]3[C@@H]4CC[C@H]([C@H](C)N(C)C)[C@@]4(C)CC[C@@H]32)C1 | Active | 
 | > 20 µM | C[C@@H]([C@H]1CC[C@H]2[C@@H]3CC[C@H]4C[C@@H](NC(=O)c5ccccc5)CC[C@]4(C)[C@H]3CC[C@]12C)N(C)C [EPIPACHYSAMINE D] | Active | 
 | 0.6 µM | CC(C)=CC(=O)N(C)[C@@H]1CC[C@@]2(C)[C@@H](CC[C@@H]3[C@@H]2CC[C@]2(C)[C@@H]([C@H](C)N(C)C)CC[C@@H]32)C1 [(+)-PACHYSAMINE B] |  | Active

More lines, now with the values behind:

SMILES | IC50 (Ishikawa [1]) | IC50 [3] | Activity (Ishikawa [2]) | Activity (Ishikawa [4])
CC/C(=C(\c1ccccc1)c1ccc(OCCN(C)C)cc1)c1ccccc1 [TAMOXIFEN] | 0.42 µM |  |  | 
CC(=O)O[C@H]1[C@@H](N2C(=O)c3ccccc3C2=O)[C@H](O)C[C@]2(C)[C@H]3CC[C@]4(C)[C@@H]([C@H](C)N(C)C)CC[C@H]4[C@@H]3CC[C@@H]12 |  |  | Active | 
C[C@@H]([C@H]1CC[C@H]2[C@@H]3CC[C@H]4C(=O)C(NC(=O)c5ccccc5)=CC[C@]4(C)[C@H]3CC[C@]12C)N(C)C |  | 8 µM | Active | 
CC(C)[C@@H]1CN(C2=CC[C@@]3(C)[C@@H](CC[C@@H]4[C@@H]3CC[C@]3(C)[C@@H]([C@H](C)N(C)C)CC[C@@H]43)C2=O)C1=O |  |  | Active | 
C[C@@H]([C@H]1CC[C@H]2[C@@H]3CC[C@H]4C[C@]5(CC[C@]4(C)[C@H]3CC[C@]12C)c1ccccc1C(=O)N5C)N(C)C |  | 7.4 µM | Active | 
